SMILES strings stand for the structures.

Sequence of human serum albumin (HSA) (P02768 25-609): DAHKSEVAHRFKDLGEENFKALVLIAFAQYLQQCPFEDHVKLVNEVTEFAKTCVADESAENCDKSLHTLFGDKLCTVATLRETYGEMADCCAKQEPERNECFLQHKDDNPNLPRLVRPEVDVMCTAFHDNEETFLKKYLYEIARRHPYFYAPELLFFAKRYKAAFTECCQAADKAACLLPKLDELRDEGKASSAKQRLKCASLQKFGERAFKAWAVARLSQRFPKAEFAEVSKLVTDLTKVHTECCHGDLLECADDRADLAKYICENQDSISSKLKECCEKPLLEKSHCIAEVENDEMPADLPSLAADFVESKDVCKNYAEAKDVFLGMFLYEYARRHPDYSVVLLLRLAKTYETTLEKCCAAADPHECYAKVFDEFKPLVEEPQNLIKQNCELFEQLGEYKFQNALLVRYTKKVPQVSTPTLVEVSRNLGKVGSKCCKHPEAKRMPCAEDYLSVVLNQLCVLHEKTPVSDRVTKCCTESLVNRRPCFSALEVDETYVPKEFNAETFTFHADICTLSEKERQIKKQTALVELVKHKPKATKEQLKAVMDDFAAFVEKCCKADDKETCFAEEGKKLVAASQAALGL

The assay addresses human serum albumin (HSA) (Homo sapiens, UniProt P02768). The assay is described as follows: zonal elution, high-performance affinity chromatography on entrapped HSA. In kind it is binding.
As for `CNCCC=C1c2ccccc2CCc2ccccc21` [nortriptyline], the dissociation constant (Kd) (commonly a measure of binding affinity in units of concentration) was 16.1 µM.

For `O=C(N[C@H](CO)[C@H](O)c1ccc([N+](=O)[O-])cc1)C(Cl)Cl` [chloramphenicol], binding was characterised by a dissociation constant (Kd) of 625 µM. Compared with the last compound, the Kd is about 39-fold higher.

Take `CN(C)CCC=C1c2ccccc2CCc2ccccc21` [amitriptyline]: the Kd was 17.9 µM.

For the origin of these results see publication PMC4862888 (Journal of chromatography. B, Analytical technologies in …, 2015).
